# What was measured:
# [1] = Solubility experiment in different media, thermodynamic solubility at 37°C; type: physicochemical; details: for solubility after salt formation compared with the free compound: 37°C; for solubility at 24 h: thermodynamic from solid, thermodynamic solubility
# Description: About 2 mg of crystal form A of ethanesulfonate salt of (S)-2-((2-((R)-4-(difluoromethyl)-2-oxothiazolidin-3-yl)-5,6-dihydrobenzo[f]imidazo[1,2-d][1,4]oxazepin-9-yl)amino)propionamide was suspended in different media for 24 hours.
# [2] = Stability experiment of the solids (60°C, RH 95%, light), HPLC; type: physicochemical; details: light condition (5000 lx) for 10 days
# Description: About 2 mg of crystal form A of mesylate salt, crystal form C of sulfate salt and crystal form A of ethanesulfonate salt of (S)-2-((2-((R)-4-(difluoromethyl)-2-oxothiazolidin-3-yl)-5,6-dihydrobenzo[f]imidazo[1,2-d][1,4]oxazepin-9-yl)amino)propionamide was placed in a sealed oven at 60° C., in an unsealed container at room temperature under RH 95% (saturated aqueous KNO3 solution) and in a light box (5000 lx±500 lx) and observed for 5 days and 10 days. The content of salt was determined by HPLC using the external standard method. Changes of related substance of salt in substances related to the salts were calculated by normalization of chromatography peak area.
# [3] = Polymorphic screening experiment; type: physicochemical; details: slurrying, changing solvent and crystallization mode
# Description: Organic solvents and water with a certain solubility was chosen to suspend the compound in the solvent system, and the mixture was stirred and slurried at room temperature for 1 week, and then centrifuged. The supernatant was discarded, and the solid was dried in vacuum (−0.1 Mpa) at 40° C. overnight. Then the XRPD of the solid was measured and compared with the XRPD of salt of the compound.
# [4] = Hygroscopicity experiment; type: physicochemical; details: for crystal form (XRPD pattern) after humidification and dehumidification: 1 cycle under 0 to 95% relative humidity; for hygroscopic weight gain / hygroscopicity (in words): RH 80%
# Description: Crystal form A of mesylate salt, crystal form D of sulfate salt and crystal form A of ethanesulfonate salt of (S)-2-((2-((R)-4-(difluoromethyl)-2-oxothiazolidin-3-yl)-5,6-dihydrobenzo[f]imidazo[1,2-d][1,4]oxazepin-9-yl)amino)propionamide were placed in saturated water vapor with different relative humidity, so that the compound and water vapor reached a dynamic equilibrium, and the percentage of hygroscopic weight gain of the compound after the equilibrium was calculated.
# [5] = PK studies in animals of salt crystal forms, intragastric 30 mg/kg; type: in vivo; details: 0.5% HPMC K4M suspension; for exposure in rats (in words): 30 mg/kg; for AUC(0-inf) / AUC(0-t) / Cmax / Tmax / half-life / MRT inf: rat, in vivo, po, rats, 30 mg/kg (as free compound); for MRT inf: read-out: MRT0-∞
# Description: 7.2.1 Crystal form A of mesylate salt, crystal form D of sulfate salt and crystal form A of ethanesulfonate salt of (S)-2-((2-((R)-4-(difluoromethyl)-2-oxothiazolidin-3-yl)-5,6-dihydrobenzo[f]imidazo[1,2-d][1,4]oxazepin-9-yl)amino)propionamide were evenly suspended in an aqueous solution containing 0.5% HPMC (hydroxypropyl methylcellulose) K4M, and then intragastrically administered to rats in duplicate at a dose of 30 mg/kg. The amount of the compound was all converted into the amount of the same compound (S)-2-((2-((R)-4-(difluoromethyl)-2-oxothiazolidin-3-yl)-5,6-dihydrobenzo[f]imidazo[1,2-d][1,4]oxazepin-9-yl)amino)propionamide.
smiles,measurement,setting,value
"CCS(=O)(=O)O.C[C@H](Nc1ccc2c(c1)OCCn1cc(N3C(=O)SC[C@H]3C(F)F)nc1-2)C(N)=O [crystal form A of ethanesulfonate salt, (S)-2-((2-((R)-4-(difluoromethyl)-2-oxothiazolidin-3-yl)-5,6-dihydrobenzo[f]imidazo[1,2-d][1,4]oxazepin-9-yl)amino)propionamide]",solubility after salt formation compared with the free compound,[1]; media of pH4 to 8 buffer,slightly lower solubility
same,solubility at 24 h,"[1]; medium of pH 1, simulated gastric fluid, medium pH 1, 37° C.",9370 µg/mL
same,solubility at 24 h,"[1]; medium of pH 2, simulated gastric fluid, medium pH 2, 37° C.",974 µg/mL
same,solubility at 24 h,"[1]; medium of pH 3, aqueous buffer, medium pH 3, 37° C.",268 µg/mL
same,solubility at 24 h,"[1]; medium of pH 4, aqueous buffer, medium pH 4, 37° C.",49 µg/mL
same,solubility at 24 h,"[1]; medium of pH 5, aqueous buffer, medium pH 5, 37° C.",20 µg/mL
same,solubility at 24 h,"[1]; medium of pH 6, aqueous buffer, medium pH 6, 37° C.",5 µg/mL
same,solubility at 24 h,"[1]; medium of pH 7, aqueous buffer, medium pH 7, 37° C.",12 µg/mL
same,solubility at 24 h,"[1]; medium of pH 8, aqueous buffer, medium pH 8, 37° C.",14 µg/mL
same,solubility after salt formation compared with the free compound,"[1]; other media, most obviously in water",increased the solubility
same,solubility at 24 h,"[1]; medium Fa (fasted-state simulated intestinal fluid, FaSSIF), 37° C.",44 µg/mL
same,solubility at 24 h,"[1]; medium Fe (fed-state simulated intestinal fluid, FeSSIF), 37° C.",163 µg/mL
same,solubility at 24 h,"[1]; medium SGF (simulated gastric fluid), 37° C.",1150 µg/mL
same,solubility at 24 h,"[1]; medium water, 37° C.",608 µg/mL
same,increase of new impurity compared with 0 days,[2],0.134%
same,crystal form obtained in polymorphic screening,[3],in crystal form A was obtained
same,crystal form (XRPD pattern) after humidification and dehumidification,[4],the crystal form did not change
same,hygroscopic weight gain,[4],0.207%
same,hygroscopicity (in words),[4],slight hygroscopicity
same,exposure in rats (in words),[5],higher exposures
same,AUC(0-inf),[5],10400 ng·h/mL
same,AUC(0-t),[5],10000 ng·h/mL
same,Cmax,[5],1460 ng/mL
same,Tmax,[5],1 h
same,half-life,[5],3.01 h
same,MRT inf,[5],6.98 h
"CS(=O)(=O)O.C[C@H](Nc1ccc2c(c1)OCCn1cc(N3C(=O)SC[C@H]3C(F)F)nc1-2)C(N)=O [crystal form A of mesylate salt, (S)-2-((2-((R)-4-(difluoromethyl)-2-oxothiazolidin-3-yl)-5,6-dihydrobenzo[f]imidazo[1,2-d][1,4]oxazepin-9-yl)amino)propionamide]",increase of new impurity compared with 0 days,[2],0.523%
same,crystal form (XRPD pattern) after humidification and dehumidification,[4],the crystal form changed
same,hygroscopic weight gain,[4],3.6%
same,hygroscopicity (in words),[4],had hygroscopicity
same,exposure in rats (in words),[5],higher exposures
same,AUC(0-inf),[5],10200 ng·h/mL
same,AUC(0-t),[5],9840 ng·h/mL
same,Cmax,[5],1180 ng/mL
same,Tmax,[5],1 h
same,half-life,[5],3.54 h
same,MRT inf,[5],6.52 h
